Measurements published in patent publication US10111950B2, “Modified glycolipids and methods of making and using the same” (Vaccinex, Inc., priority 2013, dated 2018).

Assays:
[1] = system: mCD1d.CEA fusion protein; test: Direct comparison of DB12-8 and 7DW8-5 complexes with mCD1d.CEA fusion protein, L363 ELISA; format: binding, murine
Protocol: (§1) The ligand binding affinity of plate bound mCD1d was measured by ELISA using mAb L363 to detect murine CD1d/αGalCer complexes. ELISA plates were coated with mCD1d (10 μg/ml, 30 μl/well) overnight at 4° C. in PBS pH 8.2. Supernatant was then removed along with any unbound protein. Glycolipids (5 μM, 30 μl/well) were loaded and allowed to incubate overnight at 25° C. Supernatant was again removed and the complexes were washed three times with PBS to remove any unbound glycolipid. For those complexes that underwent UV activation, UV crosslinking was performed in solution (30 μl/well PBS) and at a fixed wavelength of 365 nm from a UV lamp (RAD-FREE long wave UV lamp, Schleicher & Schuell). The UV lamp was placed one inch from the sample and the sample was allowed to sit on ice for 1 hr.
(§2) The ligand binding affinity of plate bound mCD1d was detected by iNKT DN3A4-1.2 hybridoma stimulation assay. mCD1d (10 μg/ml) was loaded with glycolipids (5 μM) overnight at 25° C. ELISA plates were coated with mCD1d:GC complexes (2.5 μg/ml, 30 μl/well) for 12-18 hours at 4° C. in PBS pH 8.2. Supernatant was then removed and the complexes were washed three times with PBS to remove any unbound glycolipid and protein. For those complexes that underwent UV activation, UV crosslinking was performed in solution (30 μl/well PBS) and at a fixed wavelength of 365 nm from a UV lamp (RAD-FREE long wave UV lamp, Schleicher & Schuell). The UV lamp was placed one inch from the sample and the sample was allowed to sit on ice for 1 hr. Supernatant was then removed and the complexes were washed three times with PBS to remove any unbound glycolipid and protein.
mCD1d.CEA (10 μg/ml), a recombinant mCD1d protein genetically fused with a single chain Fv antibody fragment specific for the tumor associated antigen CEA, was loaded with glycolipids (5 μM) overnight at 25° C. in PBS pH8.2 with 0.05% tyloxapol. The mCD1d.CEA:GC complexes (10 μg/ml, 30 μl/well) were coated onto wells of high binding ELISA 96 well plates overnight at 4° C. UV exposure and incubation to allow dissociation over 3 days were performed as described in Examples 6 and 7.
A scale up of the complex formation in solution was performed using a 10-fold increased concentration of protein and glycolipid and the results are shown in FIG. 9C-9D. mCD1d.CEA (100 μg/ml) was loaded with DB12-8 (50 μM respectively) overnight at 25° C. in PBS pH8.2 with 0.05% tyloxapol. DB12-8:mCD1d.CEA complexes were diluted down to 10 μg/ml and were coated onto the high binding ELISA plates (30 μl/well), overnight at 4° C. UV exposure and incubation to allow dissociation over 3 days were performed as described in Examples 6 and 7.

[2] = system: iNKT hybridoma DN3A4-1.2 with plate bound mCD1d; test: Plate bound mCD1d:glycolipid complexes with and without UV activation, iNKT DN3A4-1.2 hybridoma stimulation assay (IL-2 ELISA); format: cell-based, murine; details: for iNKT stimulation post-dissociation (IL-2 ELISA): after 3 days dissociation, non-crosslinked mCD1d complexes (UV state not stated for 7DW8-5)
Protocol: as §2

[3] = biological target: T1, soluble recombinant mCD1d (Mus musculus, UniProt P11609); test: Direct comparison of DB12-8 and 7DW8-5 complexes with soluble recombinant mCD1d, L363 ELISA; format: binding, murine
T1 construct: A soluble recombinant mCD1d protein (10 μg/ml) was loaded with glycolipids
T1 sequence (P11609 22-305 limits assumed): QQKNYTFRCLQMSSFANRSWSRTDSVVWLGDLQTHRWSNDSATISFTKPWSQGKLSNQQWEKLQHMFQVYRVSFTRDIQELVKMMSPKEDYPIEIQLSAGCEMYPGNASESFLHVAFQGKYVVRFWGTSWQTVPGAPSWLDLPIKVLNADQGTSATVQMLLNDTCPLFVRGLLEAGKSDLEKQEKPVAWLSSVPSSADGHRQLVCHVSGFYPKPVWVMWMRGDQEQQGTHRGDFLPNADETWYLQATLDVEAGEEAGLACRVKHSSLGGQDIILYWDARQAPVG
T1 sequence (P01887 21-119 partner): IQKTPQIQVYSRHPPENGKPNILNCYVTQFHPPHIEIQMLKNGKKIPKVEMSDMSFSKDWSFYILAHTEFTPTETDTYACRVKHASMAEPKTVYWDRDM
Protocol: as §1, §2
A soluble recombinant mCD1d protein (10 μg/ml) was loaded with glycolipids (5 μM) overnight at 25° C. in PBS pH8.2 with 0.05% tyloxapol. The mCD1d:GC complexes (10 μg/ml, 30 μl/well) were coated onto the high binding ELISA plates, overnight at 4° C. UV exposure and incubation to allow dissociation over 3 days was performed as described in Examples 6 and 7.

[4] = system: iNKT hybridoma DN3A4-1.2 with human CD1d transfected HeLa cells; test: iNKT hybridoma stimulation (IL-2 secretion) with hCD1d expressing HeLa cells; format: cell-based; details: BPGC 5 to 0.01 μg/ml for 3 hrs, hybridoma 18 hours
Protocol: The activated natural killer cells were again calculated based on those secreting IL-2. Specifically, plate bound human CD1d transfected HeLa cells (10,000 cells in 100 μl medium) were plated in a 96 well tissue culture plate and allowed to adhere to the plates for 30 minutes at 37° C. Adherent HeLa cells were treated with varying BPGC concentrations ranging between 5 and 0.01 μg/ml in 100 μl for 3 hrs at 37° C. Glycolipid not taken up by cells was removed by washing with medium. To detect the BPGC presentation by CD1d, iNKT hybridoma DN3A4-1.2 (5000 cells in 100 μl volume) was added and the stimulation was detected by the level of IL-2 secreted in the supernatant following incubation at 37° C. for 18 hours.

[5] = biological target: T2, plate bound mCD1d (Mus musculus, UniProt P11609); test: Ligand binding to plate bound mCD1d with and without UV activation, ELISA using mAb L363; design: species or system murine; details: for dissociation of CD1d:glycolipid complex after 3 days (L363 ELISA): 3 days in PBS+0.05% Triton X-100 at 25° C.; for CD1d/glycolipid complex formation detected by mAb L363 ELISA: plate bound mCD1d 10 μg/ml, glycolipid 5 μM
T2 construct: recombinant soluble murine CD1d (mCD1d) was diluted to 400 μg/ml in PBS pH 7.2
T2 sequence (P11609 22-305 limits assumed): T1 sequence (P11609 22-305 limits assumed)
T2 sequence (P01887 21-119 partner): T1 sequence (P01887 21-119 partner)
Protocol: as §1

[6] = system: iNKT cells; details: repeated stimulation; cited from earlier work

## CCCCCCCCCCCCCC[C@@H](O)[C@@H](O)[C@H](COC1OC(CO)C(O)C(O)C1O)NC(=O)CCCCCCCCCCOCc1cccc(C(=O)c2ccccc2)c1 (stereo partly drawn) [DB12-8]
[1]; 10-fold scale up (mCD1d.CEA 100 μg/ml, DB12-8 50 μM), UV-crosslinked samples
  reduction in OD450 after 3 days: no detectable reduction in OD450
[1]; 10-fold scale up (mCD1d.CEA 100 μg/ml, DB12-8 50 μM), non-crosslinked complexes
  decrease in OD450 after 3 days incubation: ~75%
[1]; UV exposure at 365 nm
  dissociation after 3 days (L363 ELISA signal): no dissociation was observed
[1]; mCD1d.CEA 10 μg/ml, glycolipid 5 μM
  affinity to CD1d, complex detected by L363 ELISA: showed affinity to CD1d
[1]; mCD1d.CEA complex
  L363 ELISA signal following UV-crosslinking: increases significantly
[1]; non UV-crosslinked state
  dissociation after 3 days (L363 ELISA signal): almost completely dissociated
[2]; UV crosslinked 365 nm 1 hr
  iNKT hybridoma stimulation following UV crosslinking (IL-2 ELISA): stimulated iNKT hybridoma better than other glycolipids
[2]
  iNKT stimulation post-dissociation (IL-2 ELISA): some, albeit reduced, iNKT stimulation even after dissociation
[2]; following UV crosslinking
  binding to CD1d: bound efficiently to CD1d
[3]; UV exposure at 365 nm
  dissociation after 3 days (L363 ELISA signal): no dissociation was observed
[3]; mCD1d 10 μg/ml, glycolipid 5 μM
  affinity to CD1d, complex detected by L363 ELISA: showed affinity to CD1d
[3]; non UV-crosslinked state
  dissociation after 3 days (L363 ELISA signal): dissociated almost completely
[4]
  iNKT stimulation, level of IL-2 secreted in the supernatant: stimulatory toward iNKT cells
[5]; UV irradiated 365 nm 1 hr
  dissociation of CD1d:glycolipid complex after 3 days (L363 ELISA): no significant dissociation
[5]
  CD1d/glycolipid complex formation detected by mAb L363 ELISA: highest levels of immunoreactive complex formation

## CCCCCCCCCCCCCC[C@@H](O)[C@@H](O)[C@H](COC1OC(CO)C(O)C(O)C1O)NC(=O)CCCCCCCCCCCOCc1cccc(C(=O)c2ccccc2)c1 (stereo partly drawn) [DB12-9]
[2]
  iNKT stimulation post-dissociation (IL-2 ELISA): some, albeit reduced, iNKT stimulation even after dissociation
[5]; UV irradiated 365 nm 1 hr
  dissociation of CD1d:glycolipid complex after 3 days (L363 ELISA): no significant dissociation
[5]
  CD1d/glycolipid complex formation detected by mAb L363 ELISA: highest levels of immunoreactive complex formation

## CCCCCCCCCCCCCCCCCCCCCCCCCC(=O)N[C@@H](CO[C@H]1O[C@H](CO)[C@H](O)[C@H](O)[C@H]1O)[C@H](O)[C@H](O)CCCCCCCCCCCCCC [KRN7000, (2S,3S,4R)-1-O-(α-D-galactopyranosyl)-N-hexacosanoyl-2-amino-1,3,4-octadecanetriol, reference compound]
[5]; UV irradiated 365 nm 1 hr
  dissociation of CD1d:glycolipid complex after 3 days (L363 ELISA): dissociated after 3 days
[5]; not UV irradiated
  dissociation of CD1d:glycolipid complex after 3 days (L363 ELISA): dissociated after 3 days

## CCCCCCCCCCCCCCCCCCCCCCCCCC(=O)N[C@@H](CO[C@H]1O[C@H](CO)[C@H](O)[C@H](O)[C@H]1O)[C@H](O)[C@H](O)CCCCCCCCCCCCCC [αGalCer, α-galactosylceramide]
[6]
  iNKT cell response to stimulation with free αGalCer: results in iNKT cell anergy
